The test system of test [1] is platelets on solid phase fibrinogen. As to the kind of experiment: Effect of compound on platelet stretching on solid phase fibrinogen. The class given is cell-based. The following applies: 1 h, washed platelets, incubated 60 min at 37° C., read-out: Concentration range for compounds that inhibit platelet stretching on fibrinogen. The method, then:
1. Experimental method: Firstly, 50 μl fibrinogen (0.1M, diluted with pH 8.3 sodium bicarbonate, 20 μg/ml) was added to 96-well plate, and coated overnight at 4° C. After being washed by PBS for 3 times in the morning, sealed with bovine serum albumin (20 mg/ml) at 37° C. for 60 min, then 100 μl of washed platelet suspension was taken, and added into compounds in each group to make the final concentration 250 μM, and incubated at 37° C. for 60 min. 50 μl of incubated platelets were added to 96-well plate, adhered in a temperature box at 37° C. for 60 min, unadhered platelets were removed by PBS washing for 3 times, and adhered platelets were stably fixed with 4% paraformaldehyde, and washed with PBS for 3 times. Then the platelet membrane was perforated with 0.5% Triton X-100, and then the platelet was stained with 0.5 μg/ml phalloidin-rhodamine for 60 min at 37° C. and washed 3 times (10 min each) with PBS.
2. Experimental results and conclusions: The concentration of different compounds on platelet stretching on fibrinogen was shown in Table 3, and the inhibitory effect of some compounds on platelet stretching was shown in FIG. 2.

Test [2] concerns the target Src kinase SH3 domain protein (Homo sapiens (Human), UniProt P12931). As to the kind of experiment: Surface plasmon resonance (SPR) determination of dissociation constants with SH3 protein. The format is binding. The conditions noted are these: SH3 protein coupled to CM5 chip. The procedure:
1. Experimental method: Surface plasmon resonance test was carried out on BIACORE T200 instrument (GE Company). Fresh purified grade Src kinase SH3 domain protein (concentration 2 mg/ml) was diluted to 0.1 mg/ml with 10 mM CH3COONa (pH 4.2) and then SH3 protein was coupled to the CM5 chip by standard amino coupling methods. The compounds of the invention were diluted in a gradient using a buffer solution (20 mM Tris-HCl, PH 8.0, 100 mM NaCl) for 60 seconds and dissociated for 120 seconds at a flow rate of […], respectively. The changes in response values over time were recorded and analyzed by the BIA Evaluation Software (GE Healthcare) program to obtain the dissociation constants KD for the different compounds with SH3 protein.
2. Experimental results and conclusions: The dissociation constants KD of different compounds and SH3 protein were described in Table 2, and the surface plasmon resonance (SPR) experimental results of some compounds were shown in FIG. 1.

This note sets out measurements from patent publication US20250289812A1, “COMPOUND FOR TREATING THROMBOTIC DISEASES” (SHANGHAI INSTITUTE OF MATERIA MEDICA, CHINESE ACADEMY OF …, priority 2020, published 2025).

Sequence of Src kinase SH3 domain protein (P12931 whole entry, looked up, the tested form may be a part): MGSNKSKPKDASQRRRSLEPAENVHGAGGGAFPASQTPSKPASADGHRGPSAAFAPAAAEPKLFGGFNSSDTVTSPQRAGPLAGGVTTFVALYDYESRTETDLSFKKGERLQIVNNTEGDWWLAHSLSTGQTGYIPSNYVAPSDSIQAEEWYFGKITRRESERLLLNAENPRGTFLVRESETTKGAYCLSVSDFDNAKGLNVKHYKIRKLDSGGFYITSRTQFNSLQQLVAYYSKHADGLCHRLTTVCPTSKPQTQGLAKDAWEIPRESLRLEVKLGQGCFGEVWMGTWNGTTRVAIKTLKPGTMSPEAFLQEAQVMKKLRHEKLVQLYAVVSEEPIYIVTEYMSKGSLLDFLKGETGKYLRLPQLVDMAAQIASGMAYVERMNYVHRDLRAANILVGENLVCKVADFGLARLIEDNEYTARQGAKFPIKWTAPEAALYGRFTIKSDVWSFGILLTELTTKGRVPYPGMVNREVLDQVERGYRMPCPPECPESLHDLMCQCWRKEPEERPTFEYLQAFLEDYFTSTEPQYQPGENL

Consider `CCOC(=O)c1c(CNC(=N)N)n(C)c2cc(OC3CCCC3)ccc12` [SYY-C054], for which the minimal effective concentration in test [1] is 10 to 100 µM. The Kd (commonly the equilibrium constant for the complex coming apart) in test [2] is below 1000 nM.

As to `CCOC(=O)c1c(CSC(=N)N)n(C)c2cc(C3CCCc4ccccc43)ccc12` (stereo not shown) [SYY-C055], the minimal effective concentration in test [1] is 10 to 100 µM. The molecule further returned a Kd in test [2] below 1000 nM.

Take `CCOC(=O)c1c(CSC(=N)N)n(C)c2cc(C3CCC(F)(F)CC3)ccc12` [SYY-C056]: the minimal effective concentration in test [1] was 100 to 250 µM. For the same molecule, the dissociation constant (Kd) in test [2] was in the range of 10000 to 100000 nM.

In the case of `CCOC(=O)c1c(CNC(=N)N)n(C)c2cc(C3CCCc4ccccc43)ccc12` (stereo not shown) [SYY-C057], the minimal effective concentration in test [1] is 10 to 100 µM. Further, the dissociation constant (Kd) in test [2] was below 1000 nM.

Consider `CCOC(=O)c1c(CSC(=N)N)n(C)c2cc(OC3CCCC3)ccc12` [SYY-C058], for which the minimal effective concentration in test [1] was in the range of 100 to 250 µM. In test [2], this molecule came in with a dissociation constant Kd of 10000 to 100000 nM.

As to `CCOC(=O)c1c(CSC(=N)N)n(C)c2cc(Oc3ccccc3)ccc12` [SYY-C059], the minimal effective concentration in test [1] is 10 to 100 µM. Moreover, in test [2], the Kd is below 1000 nM.

Turning to `CCOC(=O)c1c(CNC(=N)N)n(C)c2cc(C3CCC(F)(F)CC3)ccc12` [SYY-C060], in test [1], the minimal effective concentration lay in the range of 10 to 100 µM. The same molecule showed a Kd in test [2] below 1000 nM.

In the case of `CCOC(=O)c1c(CSC(=N)N)n(C)c2cc(OC3CCCCC3)ccc12` [SYY-C061], the minimal effective concentration in test [1] was 10 to 100 µM. The molecule also had a dissociation constant (Kd) in test [2] of 10000 to 100000 nM.

In the case of `CCOC(=O)c1c(CSC(=N)N)n(C)c2ccc3ccccc3c12` [SYY-C062], the minimal effective concentration in test [1] is 10 to 100 µM. The molecule further had a dissociation constant (Kd) in test [2] below 1000 nM.

Consider `CCOC(=O)c1c(CSC(=N)N)n(C)c2cc(C3CC4CCC3C4)ccc12` (stereo not shown) [SYY-C063], for which the minimal effective concentration in test [1] lay in the range of 10 to 100 µM. This molecule displayed a dissociation constant (Kd) in test [2] below 1000 nM.

As for `CCOC(=O)c1c(CNC(=N)N)n(C)c2ccc(-c3ccc4ccccc4c3)cc12` [SYY-C065], the minimal effective concentration in test [1] lay in the range of 10 to 100 µM. In test [2], this molecule yielded a Kd of 10000 to 100000 nM.

On to `CCOC(=O)c1c(CNC(=N)N)n(C)c2cc(-c3ccnc4ccccc34)ccc12` [SYY-C066], for which the minimal effective concentration in test [1] was in the range of 10 to 100 µM. Besides, the Kd in test [2] is below 1000 nM.

`CCOC(=O)c1c(CNC(=N)N)n(C)c2cc(-c3cccc4ncccc34)ccc12` [SYY-C067]: the minimal effective concentration in test [1] is 10 to 100 µM. The same molecule came in with a Kd in test [2] below 1000 nM.

Turning to `CCOC(=O)c1c(CNC(=N)N)n(C)c2cc(C3=CCCc4ccccc43)ccc12` [SYY-C068], the minimal effective concentration in test [1] was in the range of 100 to 250 µM. In test [2], this molecule yielded a Kd of 1000 to 10000 nM.

With `CCOC(=O)c1c(CNC(=N)N)n(C)c2ccc(-c3cccc4ccccc34)cc12` [SYY-C070], the minimal effective concentration in test [1] was in the range of 10 to 100 µM. Also, in test [2], the Kd is below 1000 nM.

Regarding `CCOC(=O)c1c(CNC(=N)N)n(C)c2ccc(C3=CCCc4ccccc43)cc12` [SYY-C071], in test [1], the minimal effective concentration was in the range of 10 to 100 µM. The same molecule had a Kd in test [2] below 1000 nM.

As for `CCOC(=O)c1c(CNC(=N)N)n(C)c2cc(-c3ccc(C)c4ccccc34)ccc12` [SYY-C072], the minimal effective concentration in test [1] is 10 to 100 µM. The molecule also showed a Kd in test [2] of 1000 to 10000 nM.

In the case of `CCOC(=O)c1c(CNC(=N)N)n(C)c2cc(-c3cncc4ccccc34)ccc12` [SYY-C073], in test [1], the minimal effective concentration was in the range of 10 to 100 µM. In test [2], this molecule had a dissociation constant Kd below 1000 nM.

Regarding `CCOC(=O)c1c(CNC(=N)N)n(C)c2cc(-c3cccc4cnccc34)ccc12` [SYY-C074], the minimal effective concentration in test [1] was in the range of 10 to 100 µM. The dissociation constant (Kd) in test [2] fell in the range of 10000 to 100000 nM.

As for `CCOC(=O)c1c(CNC(=N)N)n(C)c2cc(-c3cccc4cccnc34)ccc12` [SYY-C075], the minimal effective concentration in test [1] fell in the range of 10 to 100 µM. The molecule further showed a Kd in test [2] below 1000 nM.

As for `CCOC(=O)c1c(CNC(=N)N)n(C)c2cc(-c3ccc(F)c4ccccc34)ccc12` [SYY-C076], the minimal effective concentration in test [1] fell in the range of 100 to 250 µM. The Kd in test [2] lay in the range of 1000 to 10000 nM.

As to `CCOC(=O)c1c(CNC(=N)N)n(C)c2cc(-c3cccc4ccncc34)ccc12` [SYY-C077], the minimal effective concentration in test [1] lay in the range of 10 to 100 µM. Also, in test [2], the Kd is below 1000 nM.

On to `CCOC(=O)c1c(CNC(=N)N)n(C)c2cc(-c3c4ccccc4cc4ccccc34)ccc12` [SYY-C078], for which the minimal effective concentration in test [1] was 10 to 100 µM. In addition, in test [2], the Kd is below 1000 nM.
